# Source: patent publication US20110207760A1, “SN-38 COMPOSITIONS” (priority 2010, published 2011)
# Legend:
# [1] = Dissolution of SN-38 in aqueous SBECD at 100° C. (HPLC); format: physicochemical; details: boiling water bath 1 hour, 24 hours room temperature
# Experimental: 37.6 mL water was added to 62.4 g sodium sulfobutyl ether beta-cyclodextrin (having a substitution level of about 7, as determined by NMR, and a water content of 3.9%, as determined by Karl-Fisher method), and was mixed until homogenous. The resulting viscous liquid was filtered through a 0.2 micrometer nylon filter to produce 60% (w/w) clear aqueous solution of SBECD. The density of this solution was 1.29 g/mL.
# 2 mg of SN-38 was added to 4g of such 60% (w/w) aqueous SBECD, and the mixture heated in a boiling water bath for 1 hour, allowed to cool and kept at room temperature for 24 hours, and then filtered through a 0.2 micrometer nylon filter with a 1 micrometer glass fiber prefilter. A clear yellow viscous liquid was produced.
# Aliquots of the resultant SN-38 composition in aqueous SBECD were diluted 6 times with water, and further diluted with 10% (w/w) aqueous SBECD to obtain samples having a concentration suitable for HPLC analysis. The samples were analyzed by HPLC using column Symmetry Shield C18 3.5 μ, 50×4.6 mm (Waters), water (0.1% TFA)—acetonitrile (0.1% TFA) gradient and UV detection at 225 nm and 260 nm. The concentrations of SN-38 in the samples were determined by comparison of the area under the peak with the results obtained from analysis of standard solutions.
# 4 g samples of aqueous SBECD having a concentration of 20%, 30%, 40%, 50% and 60% (w/w), respectively, were mixed with 2 mg of SN-38. The mixtures were heated in boiling water bath for 1 hour and then were kept for 24 hours at room temperature. The mixtures were then filtered through a 0.2 micrometer nylon filter and analyzed by HPLC as described in Example 1.
# [2] = tested on: Human Colon Carcinoma LoVo DX Cells; test: Growth of subcutaneous solid tumor of LoVo DX cells in mice; format: in vivo, Balb/c mice; details: treated group, (SEM); for Tumor volume: SN-38 4.5 mg/kg in 20% SBECD i.p. twice daily; for Tumor volume increase: relative to day 0 of treatment
# Excerpt: Lovo Dx cells (2.5×10^6 cells per an injection) in culture medium with 30% Matrigel were subcutaneously inoculated at 2 sides of the flank (in the mid-flank) of each of 15 Balb/c mice. 20 days after inoculation the animals were randomly divided into 2 groups: control (8 mice) and treated (7 animals). On day 21, 24, 27 and 30 after inoculation (days 1, 4, 7, and 10 of treatment), twice daily, at 10 am and at 4 pm, the animals received intraperitoneal injections. Control animals received each time injection of 0.49 mL of 0.9% saline. Treated animals received each time injection of SN-38 solution in 20% SBECD (w/w), 4.5 mg/kg of SN-38. The SN-38 solution for the treatment was prepared by the dilution of concentrated composition of the Example 1 with water. Tumor sizes and body weight of each animal was monitored during treatment. The results represented as average tumor volume estimated from measurements of tumor diameters (V=0.5*D1*D2*D2, where Dl and D2 are longer and shorter diameter of the tumor) are presented in Table 7 below (the standard error of mean is in parentheses).
# [3] = Pharmacokinetics of SN-38 and SN-38G after i.v. dosing of SN-38 in 40% SBECD; format: in vivo, Female Sprague-Dawley rats; details: female, Sprague-Dawley, rat, in vivo, iv
# Experimental: Female Sprague-Dawley rats, 4 animals per group received i.v. injections of SN-38 (doses 0.65 mg/kg and 2 mg/kg) in 40% SBECD. The SN-38 solution for the treatment was prepared by the dilution of concentrated composition of the Example 1 with water. The blood plasma samples were collected from each group of animals, extracted using liquid extraction with cold methanol/acetonitrile mixture (1:1 v/v), and analyzed using a HPLC method with fluorescent detection. The results, including levels of SN-38 and SN-38G in plasma and calculated values of area under the curve (AUC) for SN-38 and SN-38G are presented in Tables 5 and 6 below.
# [4] = biological target: T1, topoisomerase I enzyme (Homo sapiens, UniProt P11387); details: estimated; times more active than irinotecan; cited from earlier work
# T1 sequence (P11387 1-765): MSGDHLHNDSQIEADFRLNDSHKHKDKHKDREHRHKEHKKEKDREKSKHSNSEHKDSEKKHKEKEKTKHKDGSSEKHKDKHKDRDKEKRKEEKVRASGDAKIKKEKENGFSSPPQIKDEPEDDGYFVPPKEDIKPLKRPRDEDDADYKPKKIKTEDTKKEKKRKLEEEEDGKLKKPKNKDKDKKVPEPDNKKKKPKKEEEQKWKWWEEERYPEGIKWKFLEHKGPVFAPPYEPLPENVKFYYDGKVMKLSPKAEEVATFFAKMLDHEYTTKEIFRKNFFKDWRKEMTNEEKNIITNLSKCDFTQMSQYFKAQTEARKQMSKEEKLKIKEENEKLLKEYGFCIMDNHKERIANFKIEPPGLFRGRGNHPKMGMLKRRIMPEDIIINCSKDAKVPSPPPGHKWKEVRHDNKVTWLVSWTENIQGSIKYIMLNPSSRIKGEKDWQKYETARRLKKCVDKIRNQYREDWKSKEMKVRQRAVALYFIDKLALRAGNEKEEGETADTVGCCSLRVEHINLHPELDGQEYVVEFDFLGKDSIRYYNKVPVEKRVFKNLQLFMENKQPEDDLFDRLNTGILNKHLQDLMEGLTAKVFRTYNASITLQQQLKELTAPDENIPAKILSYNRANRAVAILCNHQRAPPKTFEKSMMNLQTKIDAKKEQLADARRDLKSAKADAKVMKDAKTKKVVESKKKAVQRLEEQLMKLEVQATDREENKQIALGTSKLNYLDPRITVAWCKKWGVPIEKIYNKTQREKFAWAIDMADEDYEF
compound,measurement,setting,value
"CCc1c2c(nc3ccc(O)cc13)-c1cc3c(c(=O)n1C2)COC(=O)[C@]3(O)CC [SN-38, (4S)-4,11-Diethyl-4,9-dihydroxy-1H-pyrano[3′,4′:6,7]indolizino[1,2-b]quinoline-3,14(4H,12H)dione]",SN-38 concentration,[1]; 20% SBECD,0.03 mg/g of solution
same,SN-38 concentration,[1]; 30% SBECD,0.07 mg/g of solution
same,SN-38 concentration,[1]; 40% SBECD,0.13 mg/g of solution
same,SN-38 concentration,[1]; 50% SBECD,0.23 mg/g of solution
same,SN-38 concentration,[1]; 60% SBECD,0.40 mg/g of solution
same,concentration of SN-38 in the product solution,"[1]; Example 1: 60% (w/w) aqueous SBECD, filtered",0.40 mg/g of composition
same,Tumor volume,[2]; day 0 of treatment,0.123 (0.010) cm^3
same,Tumor volume,[2]; day 4 of treatment,0.128 (0.010) cm^3
same,Tumor volume,[2]; day 6 of treatment,0.140 (0.011) cm^3
same,Tumor volume,[2]; day 8 of treatment,0.142 (0.012) cm^3
same,Tumor volume,[2]; day 11 of treatment,0.163 (0.017) cm^3
same,Tumor volume,[2]; day 13 of treatment,0.185 (0.019) cm^3
same,Tumor volume,[2]; day 15 of treatment,0.195 (0.020) cm^3
same,Tumor volume,[2]; day 18 of treatment,0.217 (0.024) cm^3
same,Tumor volume,[2]; day 20 of treatment,0.284 (0.040) cm^3
same,Tumor volume,[2]; day 22 of treatment,0.349 (0.055) cm^3
same,Tumor volume increase,[2]; day 0,100 Percentage
same,Tumor volume increase,[2]; day 4,105 (4) Percentage
same,Tumor volume increase,[2]; day 6,115 (6) Percentage
same,Tumor volume increase,[2]; day 8,117 (7) Percentage
same,Tumor volume increase,[2]; day 11,133 (11) Percentage
same,Tumor volume increase,[2]; day 13,150 (10) Percentage
same,Tumor volume increase,[2]; day 15,157 (10) Percentage
same,Tumor volume increase,[2]; day 18,175 (12) Percentage
same,Tumor volume increase,[2]; day 20,224 (22) Percentage
same,Tumor volume increase,[2]; day 22,271 (29) Percentage
same,AUC,[3]; 0.65 mg/kg,106 ng·h/mL
same,Ratio AUC SN-38/SN-38G,[3]; 0.65 mg/kg,0.39
same,concentration at 0.17 h,[3]; 0.65 mg/kg,157 ng/mL
same,concentration at 0.5 h,[3]; 0.65 mg/kg,41.3 ng/mL
same,concentration at 0.75 h,[3]; 0.65 mg/kg,26.1 ng/mL
same,concentration at 1 h,[3]; 0.65 mg/kg,18.2 ng/mL
same,concentration at 3 h,[3]; 0.65 mg/kg,5.8 ng/mL
same,concentration at 6 h,[3]; 0.65 mg/kg,1.2 ng/mL
same,AUC,[3]; 2 mg/kg,323 ng·h/mL
same,concentration at 0.17 h,[3]; 2 mg/kg,625 ng/mL
same,concentration at 0.5 h,[3]; 2 mg/kg,157 ng/mL
same,concentration at 0.75 h,[3]; 2 mg/kg,51.4 ng/mL
same,concentration at 1 h,[3]; 2 mg/kg,29.8 ng/mL
same,concentration at 3 h,[3]; 2 mg/kg,5.5 ng/mL
same,concentration at 6 h,[3]; 2 mg/kg,5.3 ng/mL
same,activity relative to irinotecan,[4],up to 1000 times
